# Patent US20160199434A1, “COMPOSITIONS AND METHODS FOR MODULATING DNA METHYLATION” (OHIO STATE INNOVATION FOUNDATION, priority 2013, published 2016)
# Entries after “also recorded” stand apart in the source; their conditions may differ.
# Columns and labels:
# [1] = tested on: desmoplakin (DSP) gene promoter; assay: Methylation-specific PCR of DSP promoter in PyMT breast cancer cells; format: cell-based, mouse
# Experimental: (§1) FIGS. 3A-3E show the effect of AKB-6899 (25 μM) on methylation of the desmoplakin (DSP) gene promoter in PyMT breast cancer cells (3A), human MDA-MB-231 triple negative breast cancer cells (3B), human C8161.9 melanoma cells (3C), and human MCF-7 breast cancer cells (3D). In FIG. 3A, the DSP promoter was 100% unmethylated (AKB-6899) vs. 99.99% methylated (vehicle). In FIG. 3B, the DSP promoter was 99.62% unmethylated (AKB-6899) v. 99.89% (vehicle). In FIG. 3C, the DSP promoter was 99.90% unmethylated (AKB-6899) v. 42.04% (vehicle). In FIG. 3D, the DSP promoter was 92.48% unmethylated (AKB-6899) v. 98.48% (vehicle). In FIG. 3E, when compared to the vehicle (DMSO), treatment of PyMT cells with AKB-6899 increased DSP expression.
# Because DSP is regulated by ER/PR expression, and because late-stage PyMT tumors lose ER/PR-positivity and heavily metastasize to the lymph nodes and lungs (Lin et al., 2003), the effects of AKB-6899 on more global events that regulate gene expression was evaluated. PyMT tumor cells in culture were treated with DMSO or AKB-6899. Methylation-specific PCR for CpG islands in the desmoplakin promoter were performed. […] Trypan Blue confirmed no cell death in AKB-6899 treated cells when compared to control cells. The experiment was repeated and RNA was isolated from the cells. RT-PCR was performed and the regulation of DNA methyltransferases (DNMTs) was evaluated. […] (FIG. 1A). The decrease in mRNA levels of DNMT-1 and DNMT-3a increased the mRNA level of DSP (FIG. 4A) and increased desmoplakin protein expression (FIG. 5A).
# [2] = tested on: desmoplakin (DSP) gene promoter; assay: Methylation-specific PCR of DSP promoter in MDA-MB-231 cells; format: cell-based, human
# Experimental: as §1
# To determine whether the decrease in DNMT expression and the increase in DSP expression were relevant in human cancer, the level of desmoplakin expression in MDA-MB-231 human triple negative breast cancer cells was determined. […] (FIG. 3B).
# [3] = tested on: desmoplakin (DSP) gene promoter; assay: Methylation of DSP promoter in MCF-7 breast cancer cells; format: cell-based, human
# Experimental: as §1
# The gene expression signatures from the tumors of PyMT breast tumor-bearing mice that were treated with either vehicle or AKB-6899 were evaluated. […] Methylation-specific PCR on the desmoplakin promoter was performed. The level of hypomethylation was near complete.
# DSP promoter = assay: Percent CpG methylation of DSP promoter in HeLa cells; format: cell-based, human; settings: 5 or 25 μM, compared to DMSO and PBA (FIG. 6B)
# Experimental: HeLa cervical cancer cells were left untreated, were treated with DMSO, were treated with 5-AZA, were treated with AKB-6899 (5 or 25 μM), or were treated with PBA (2 mM).
# DNMT-3a = DNMT-3a transcription in H1703 lung cancer cells; format: cell-based, human; settings: H1703 cells in vitro, dose-dependent (FIG. 10A)
# Source text: In FIG. 10A, AKB-6899 inhibited DNMT-1, DNMT-3a, and DNMT-3b transcription in a dose-dependent manner in human squamous cell carcinoma lung cancer cells (H1703), in vitro. The DMSO-treated DNMT mRNAs are over 1.0, meaning the level of expression is higher than the housekeeping control gene, CAP1. In FIG. 10B, AKB-6899 inhibited DNMT-3a and DNMT-3b transcription in human adenocarcinoma lung cancer cells (A549). The DMSO-treated DNMT mRNAs are under 1.0, meaning the level of expression is lower than the housekeeping control gene, CAP1.
# [4] = tested on: 23 different gene promoters; assay: Percent methylation of 23 gene promoters in H1703 squamous cell carcinoma; format: cell-based, human; settings: H1703, 10 μM and 50 μM, compared to DMSO
# Experimental: (§2) FIGS. 11A-11D show the percent methylation for 23 different gene promoters in two types of human lung cancer cells—FIGS. 11A and 11B are directed at H1703 squamous cell carcinoma and FIG. 11C and FIG. 11D are directed at A549 adenocarcinoma. DMSO was used as a vehicle and was used as a control. […] The Dec/PBA condition represents a combination of 5 μM Decitabine (5-aza-2′deoxycytidine (5-AZA), which is a demethylating agent) and 2 mM […] (PBA, HDAC inhibitor). In all promoters tested, and in both types of lung cancer, AKB-6899 demethylated the gene promoters such that the level of % DNA methylation following AKB-6899 treatment was below the level of % DNA methylation of the DMSO-treated control cells (DMSO).
# [5] = tested on: 23 different gene promoters; assay: Percent methylation of 23 gene promoters in A549 adenocarcinoma; format: cell-based, human; settings: A549, 10 μM and 50 μM, compared to DMSO
# Experimental: as §2
# [6] = tested on: H1703 squamous cell carcinoma; assay: XTT cell survival assay, H1703 lung cancer cells; format: cell-based, human; settings: H1703, increasing doses (FIG. 13B)
# Source text: (§3) FIGS. 13A-13B show XTT cell survival assays for normal lung epithelial cells (BEAS-2B) and lung cancer cells (H1703 squamous cell carcinoma and A549 adenocarcinoma) in response to increasing doses of AKB-6899.
# A549 adenocarcinoma = assay: XTT cell survival assay, A549 lung cancer cells; format: cell-based, human; settings: A549, increasing doses (FIG. 13B)
# Source text: as §3
smiles,measurement,setting,value
"O=C(O)CNC(=O)c1ncc(-c2cccc(F)c2)cc1O [AKB-6899, {[5-(3-Fluorophenyl)-3-hydroxypyridine-2-carbonyl]amino}acetic acid]",DSP promoter unmethylated,"[1]; PyMT breast cancer cells, 25 μM (FIG. 3A)",100%
same,desmoplakin promoter methylation after treatment,[1]; PyMT mouse breast cancer cells,0.0%
same,methylation state of DSP promoter CpG islands (in words),[1]; PyMT tumor cells in culture,entirely unmethylated; also recorded: near complete
same,methylation state of DSP promoter CpG islands (in words),[2]; MDA-MB-231 cells,almost entire demethylation; also recorded: near complete
same,desmoplakin promoter methylation after treatment,[2]; MDA-MB-231 human triple negative breast cancer cells,0.38%
same,DSP promoter unmethylated,"[2]; MDA-MB-231 triple negative breast cancer cells, 25 μM (FIG. 3B)",99.62%
same,level of hypomethylation of desmoplakin promoter (in words),[3],near complete
same,DSP promoter unmethylated,[3]; 25 μM (FIG. 3D),92.48%
same,demethylation of DSP promoter (percent CpG methylation),DSP promoter,increase in demethylation
same,DNMT-3a transcription,DNMT-3a,inhibited
same,percent DNA methylation of 23 gene promoters,[4],decreased the percent of DNA methylation in a dose response fashion
same,percent DNA methylation of 23 gene promoters,[5],decreased the percent of DNA methylation in a dose response fashion
same,cell survival / toxicity,[6],pronounced toxicity
same,cell survival / toxicity,A549 adenocarcinoma,pronounced toxicity
